Assay results taken from patent US12570651B2, “Quinazoline-2,4-dione derivatives as PARP inhibitors” (Suzhou Four Health Pharmaceuticals Co., Ltd., priority 2019, dated 2026).

Key:
[1] = biological target: T1, PARP-1 (Homo sapiens, UniProt P09874); test: PARP/Apoptosis Universal Colorimetric Assay Kit (ELISA), PARP inhibitory activity; format: biochemical; settings: for IC50: Elise test methods April 2020, 0.5 U/well PARP-HSA Enzyme, read-out: IC50-values for different PARP-inhibitors, as calculated by ELISA; for IC50, comparison in words: ELISA
T1 construct: purchased BioTechne—R&D Systems 4677-096-K
Experimental: The inhibitors (13F, 14F, 13I-FL, 13F-FL, 14F-FL, 13I and 14I) were kept at −20° C., dissolved in DMSO at 20 mg/mL.
The PARP/Apoptosis Universal Colorimetric Assay Kit 4677-096-K was purchased from BioTechne—R&D Systems. This ELISA kit detects biotinylated poly (ADP-ribose) deposited by PARP-1 onto immobilized histones in a 96-well format. The addition of Strep-HRP (biotin-binding protein) and a colorimetric HRP substrate yields relative absorbance that correlates with PARP-1 activity. The kit is used for in vitro screening of candidate PARP-1 inhibitors and determination of IC50 values.
The protocol recommended by the provider was followed. A 1/10 serial dilution of the inhibitors (ranging from 500 μM to 0.5 nM, 7 data points in triplicate) was added to the designated wells. Wells incubated with 0.5 U/well of PARP-HSA Enzyme without inhibitor were used as the 100% activity reference point. Data was expressed as % of Maximal Activity and plotted in function of the log of concentration (M)) using Graph Pad Prism 8. IC50 values were determined using a dose-response-inhibition equation.

[2] = test system: OE33 cells; test: Cell binding by flow cytometry; format: cell-based
Experimental: (§1) 250 000 cells (FaDu, Cal27 or OE33) in suspension were incubated with 0.5 mL media, 0.5 mL 10 μM unlabeled 14F or 0.5 mL 10 μM Olaparib-analogue. After 30 min incubation at 37° C., the cells were washed once with 0.5 mL media and subsequently incubated with 0.5 mL 0.1 μM 14F-FL for 10 min at 37° C. The cells were then washed thrice with media (including 1×10 min incubation) and resuspended in FACS buffer (PBS+0.5% FBS+EDTA+N3). Finally, cells were analyzed on a flow cytometer (BD Celesta) in the GFP channel (ex 488 nm, em filter 510 nm). Data was analyzed via FlowJo software.

[3] = test system: FaDu cells; test: Cell binding by flow cytometry; format: cell-based
Experimental: as §1

[4] = test system: Cal27 cells; test: Cell binding by flow cytometry; format: cell-based
Experimental: as §1

[5] = test system: OE33 cells; test: In vitro cell binding study, confocal microscopy; format: cell-based
Experimental: (§2) 40 000 cells (FaDu, OE33, or Cal27) were plated in 24-well plates (Cell imaging plates with glass bottom, Eppendorf), and incubated for 2 days at 37° C. After removal of the medium, either 0.5 mL of media (Cond 1), 0.5 mL of 10 μM unlabeled PARPi (14F) (Cond 2) or 0.5 mL of 10 μM Olaparib (Cond 3) was added to the cells. After 30 minutes of incubation at 37° C., cells were washed with 1 mL of medium. Subsequently, 0.5 mL of 14F-FL at a final concentration of 0.1 μM was added and incubated for 15 min at 37° C. The cells were then washed thrice with 1 ml cold PBS, fixed with 1 mL 4% paraformaldehyde (VWR) for 7-10 minutes and washed again with 1 mL PBS. Finally, 0.5 mL of 1 μg/mL DAPI-staining solution (DAPI ready-made solution, Sigma) was added for at least 10 min to stain the cell nuclei.
(§3) High resolution bright field and fluorescent images of the cells were acquired on a confocal microscope (LSM800, Zeiss) with excitation and emission wavelengths of 405/455 nm for DAPI and 488/525 for BodipyFL (standard conditions). Images were taken with a Plan Apochromat 63×/1.4 oil objective. Images were analyzed with the Software ZenLITE (Zeiss).

[6] = test system: FaDu cells; test: In vitro cell binding study, confocal microscopy; format: cell-based
Experimental: as §2, §3

[7] = test system: Cal27 cells; test: In vitro cell binding study, confocal microscopy; format: cell-based
Experimental: as §2, §3

[8] = test system: FaDu cells; test: In vitro association kinetics, confocal microscopy; format: cell-based; settings: 0.1 μM, 37° C.
Experimental: 40 000 FaDu cells were plated in 24-well plates (Cell imaging plates with glass bottom, Eppendorf), and incubated for 2 days at 37° C. After removal of the medium, 0.5 mL of 14F-FL at a final concentration of 0.1 μM was added and incubated for 2 min, 10 min, 20 min, 30 min, 45 min or 60 min at 37° C. The cells were then washed thrice with 1 ml cold PBS, fixed with 1 mL 4% paraformaldehyde (VWR) for 7-10 minutes and washed again with 1 mL PBS. Finally, 0.5 mL of 1 μg/mL DAPI-staining solution (DAPI ready-made solution, Sigma) was added for at least 10 min to stain the cell nuclei.
as §3

[9] = test system: FaDu cells; test: In vitro dissociation kinetics, confocal microscopy; format: cell-based
Experimental: 40 000 FaDu cells were plated in 24-well plates (Cell imaging plates with glass bottom, Eppendrof), and incubated for 2 days at 37° C. After removal of the medium, 0.5 mL of 14F-FL at a final concentration of 0.1 μM was added and incubated for 15 min at 37° C. The cells were then washed thrice with 1 ml cold PBS, and further incubated for 0 min, 30 min, 1 h, 2 h, 4 h or 24 h in medium at 37° C. After washing once with 1 mL cold PBS, the cells were fixed with 4% paraformaldehyde (VWR) and staining with DAPI as described above.
as §3

[10] = 10 μM pretreatment 30 min, then 0.1 μM 14F-FL
[11] = 0.1 μM 14F-FL, 10 min at 37° C.
[12] = 0.1 μM 14F-FL, 15 min at 37° C.
[13] = 0.1 μM 15 min, washed, medium at 37° C.

T1 sequence (P09874 whole entry): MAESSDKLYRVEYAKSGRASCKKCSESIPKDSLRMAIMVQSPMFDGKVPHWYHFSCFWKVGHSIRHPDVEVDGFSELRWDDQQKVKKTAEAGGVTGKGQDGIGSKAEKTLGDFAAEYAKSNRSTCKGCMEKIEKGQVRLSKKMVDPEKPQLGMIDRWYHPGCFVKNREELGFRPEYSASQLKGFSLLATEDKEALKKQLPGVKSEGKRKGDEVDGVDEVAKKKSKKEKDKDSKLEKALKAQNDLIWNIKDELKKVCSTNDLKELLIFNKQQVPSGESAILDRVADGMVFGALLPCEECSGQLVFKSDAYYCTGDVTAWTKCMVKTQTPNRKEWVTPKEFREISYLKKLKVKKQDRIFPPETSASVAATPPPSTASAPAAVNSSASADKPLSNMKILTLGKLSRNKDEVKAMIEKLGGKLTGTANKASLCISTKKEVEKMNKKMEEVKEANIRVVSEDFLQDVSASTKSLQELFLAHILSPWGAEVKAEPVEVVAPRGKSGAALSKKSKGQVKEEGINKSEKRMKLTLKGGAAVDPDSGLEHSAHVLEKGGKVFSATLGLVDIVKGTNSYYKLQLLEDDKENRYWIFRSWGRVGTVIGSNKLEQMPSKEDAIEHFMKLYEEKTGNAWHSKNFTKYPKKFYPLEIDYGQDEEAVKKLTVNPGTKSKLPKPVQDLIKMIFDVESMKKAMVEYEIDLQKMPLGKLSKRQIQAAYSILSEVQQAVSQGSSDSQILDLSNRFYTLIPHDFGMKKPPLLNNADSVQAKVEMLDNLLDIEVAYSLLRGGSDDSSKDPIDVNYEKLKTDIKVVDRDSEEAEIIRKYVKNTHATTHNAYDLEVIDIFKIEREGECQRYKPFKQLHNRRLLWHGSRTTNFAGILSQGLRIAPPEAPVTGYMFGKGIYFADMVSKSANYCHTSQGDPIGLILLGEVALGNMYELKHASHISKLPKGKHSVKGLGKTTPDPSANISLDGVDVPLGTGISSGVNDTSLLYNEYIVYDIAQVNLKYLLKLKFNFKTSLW

O=C(c1cc(Cn2c(=O)[nH]c(=O)c3cccnc32)ccc1F)N1CCN(C(=O)C2CCCC2)CC1 [Compound 13F, 1-(3-(4-(cyclopentanecarbonyl)piperazine-1-carbonyl)-4-fluorobenzyl)pyrido[2,3-d]pyrimidine-2,4(1H,3H)-dione]
IC50 [1]: 50 to 500 nM

CC1=CC(C)=[N+]2C1Cc1ccc(CCC(=O)N3CCN(C(=O)c4cc(Cn5c(=O)[nH]c(=O)c6cccnc65)ccc4F)CC3)n1[B-]2(F)F (stereo not shown) [Compound 13F-FL, 1-(3-(4-(3-(5,5-difluoro-7,9-dimethyl-5H-5I4,6I4-dipyrrolo[1,2-c:2′,1′-f][1,3,2]diazaborinin-3-yl)propanoyl)piperazine-1-carbonyl)-4-fluorobenzyl)pyrido[2,3-d]pyrimidine-2,4(1H,3H)-dione]
IC50 [1]: 50 to 500 nM

O=C(c1cc(Cn2c(=O)[nH]c(=O)c3cccnc32)ccc1I)N1CCN(C(=O)C2CCCC2)CC1 [Compound 13I, 1-(3-(4-(cyclopentanecarbonyl)piperazine-1-carbonyl)-4-iodobenzyl) pyrido [2,3-d]pyrimidine-2,4(1H,3H)-dione]
IC50 [1]: > 500 nM

CC1=CC(C)=[N+]2C1Cc1ccc(CCC(=O)N3CCN(C(=O)c4cc(Cn5c(=O)[nH]c(=O)c6cccnc65)ccc4I)CC3)n1[B-]2(F)F (stereo not shown) [Compound 13I-FL, 1-(3-(4-(3-(5,5-difluoro-7,9-dimethyl-5H-5I4,6I4-dipyrrolo[1,2-c:2′,1′-f][1,3,2]diazaborinin-3-yl)propanoyl)piperazine-1-carbonyl)-4-iodobenzyl)pyrido[2,3-d]pyrimidine-2,4(1H,3H)-dione]
IC50 [1]: > 500 nM

O=C(c1cc(Cn2c(=O)[nH]c(=O)c3ccccc32)ncc1F)N1CCN(C(=O)C2CCCC2)CC1 [Compound 14F, 1-((4-(4-(cyclopentanecarbonyl)piperazine-1-carbonyl)-5-fluoropyridin-2-yl)methyl)quinazoline-2,4(1H,3H)-dione]
14F-FL binding after pretreatment with excess unlabeled compound, flow cytometry [2, 10]: decreased the binding | 14F-FL binding after pretreatment with excess unlabeled compound, flow cytometry [3, 10]: decreased the binding | 14F-FL binding after pretreatment with excess unlabeled compound, flow cytometry [4, 10]: decreased the binding | IC50, comparison in words [1]: Best IC50-values | IC50 [1]: < 50 nM | 14F-FL signal after pretreatment with excess of unlabeled analogue [5, 10]: no green fluorescent signal | 14F-FL signal after pretreatment with excess of unlabeled analogue [6, 10]: no green fluorescent signal | 14F-FL signal after pretreatment with excess of unlabeled analogue [7, 10]: no green fluorescent signal

CC1=CC(C)=[N+]2C1=Cc1ccc(CCC(=O)N3CCN(C(=O)c4cc(Cn5c(=O)[nH]c(=O)c6ccccc65)ncc4F)CC3)n1[B-]2(F)F [Compound 14F-FL, 1-((4-(4-(3-(5,5-difluoro-7,9-dimethyl-5H-5I4,6I4-dipyrrolo[1,2-c:2′,1′-f][1,3,2]diazaborinin-3-yl)propanoyl)piperazine-1-carbonyl)-5-fluoropyridin-2-yl)methyl)quinazoline-2,4(1H,3H)-dione]
cell binding, flow cytometry [2, 11]: significant binding | cell binding, flow cytometry [3, 11]: significant binding | cell binding, flow cytometry [4, 11]: significant binding | IC50, comparison in words [1]: Best IC50-values | IC50 [1]: < 50 nM | fluorescent signal in the nuclei [5, 12]: intense green fluorescent signal | fluorescent signal in the nuclei [6, 12]: intense green fluorescent signal | fluorescent signal in the nuclei [7, 12]: intense green fluorescent signal | incubation time to maximal binding [8]: ≤ 10 min | retention on target after binding [9, 13]: remains bound to its target for a few hours | time from which the signal in the nucleus gradually decreases [9, 13]: 2 to 4 h | signal in the nuclei after 24 h ([9]; 24 h in medium at 37° C. after washing): some signal can still be observed

O=C(c1cc(Cn2c(=O)[nH]c(=O)c3ccccc32)ncc1I)N1CCN(C(=O)C2CCCC2)CC1 [Compound 14I, 1-((4-(4-(cyclopentanecarbonyl)piperazine-1-carbonyl)-5-iodopyridin-2-yl)methyl)quinazoline-2,4(1H,3H)-dione]
IC50 [1]: > 500 nM
